Assay results from publication PMC7859889 (ACS chemical biology, 2020).
“Also recorded” adds a separate entry of the source.

What was measured:
HLA-B mRNA = test: HLA-B RT-qPCR tertiary assay; type: cell-based, human; conditions: Homo sapiens; for Emax: read-out: RT-qPCR Efficacy; for IC50: read-out: RT-qPCR IC50
HLA-ABC = HLA-ABC immunofluorescence; type: cell-based, human; conditions: Homo sapiens; for Emax: read-out: Immunofluorescence Efficacy; for IC50: read-out: Immunofluorescence IC50
STAT1 = test: Western blot, STAT1 phosphorylation; type: cell-based, human; conditions: C25cl48 cells, 0.5 hrs, 4.0 ng/ml IFN-β plus IC95 concentration of compound
HLA-B HiBit cells = test: CellTiter-Glo; conditions: for CTG Curve class: 4.0 ng/ml IFN-β, 24 hours
C25cl48 cells = test: IF cell count cytotoxicity; type: cell-based, human; conditions: for Cell count Curve class: IF cell count cytotoxicity, C25cl48 cells
[1] = system: HLA-B HiBit (MHC class I); test: HLA-B HiBit luminescent reporter assay; conditions: for Emax: Homo sapiens, 24 h, read-out: HiBit Efficacy
[2] = system: type I IFN – MHC class I pathway; test: Average / all assays; type: cell-based, human; conditions: for IC50: Homo sapiens, read-out: Average IC50
HLA and ISG genes = test: Multi Gene RT-qPCR, gene panel; type: cell-based, human; conditions: 4.0 ng/ml IFN-β plus 50 uM compound, 24 hrs; for effect on HLA and ISG gene expression (in words): C25cl48 cells
HLA-A = test: Multi Gene RT-qPCR, HLA-A; type: cell-based, human; conditions: 4.0 ng/ml IFN-β plus 50 uM compound, 24 hrs
MX1 = test: Multi Gene RT-qPCR, MX1; type: cell-based, human; conditions: compared to IFN-β treated cells; 4.0 ng/ml IFN-β plus 50 uM compound, 24 hrs
ISG15 = test: Multi Gene RT-qPCR, ISG15; type: cell-based, human; conditions: compared to IFN-β treated cells; 4.0 ng/ml IFN-β plus 50 uM compound, 24 hrs
[3] = cited from earlier work
HLA-C = test: Multi Gene RT-qPCR, HLA-C; type: cell-based, human; conditions: compared to IFN-β treated cells; 4.0 ng/ml IFN-β plus 50 uM compound, 24 hrs
IFIT1 = test: Multi Gene RT-qPCR, IFIT1; type: cell-based, human; conditions: compared to IFN-β treated cells; 4.0 ng/ml IFN-β plus 50 uM compound, 24 hrs
[4] = ( ) - efficacy at highest concentration

Row | SMILES | Emax (HLA-B mRNA) [%] | Emax (HLA-ABC) [%] | CTG Curve class (HLA-B HiBit cells; cytotoxicity) | Cell count Curve class (C25cl48 cells) | IC50 (HLA-B mRNA) [nM] | IC50 (HLA-ABC) [nM] | IC50 [2] [nM] | efficacy in reducing all HLA and ISG genes (HLA and ISG genes) | effect on HLA and ISG gene expression (in words) (HLA and ISG genes) | Emax [1] [%] | also measured
1 | CCS(=O)(=O)N1CC(CC#N)(n2cc(-c3ncnc4[nH]ccc34)cn2)C1 [Baricitinib, baricitinib] | 100 | 100 | 4 | 4 | – | – | – | – | – | – | phosphorylation of STAT1 (STAT1): prevented phosphorylation of STAT1; HiBit Efficacy ([1]; HLA-B HiBit clone AB-7 cells, 4.0 ng/ml IFN-β, 24 hours, IFN-β = 0%, DMSO alone = −100% activity): 100%
2 | CC(C)[C@]12O[C@H]1[C@@H]1O[C@]13[C@]1(O[C@H]1C[C@H]1C4=C(CC[C@@]13C)C(=O)OC4)[C@@H]2O [triptolide] | – | – | – | – | – | – | – | – | – | – | hill slope ([2]; concentration-response curves): ultrasensitive
3 | COc1cccc2c1C(=O)c1c(O)c3c(c(O)c1C2=O)C[C@@](O)(C(=O)CO)C[C@@H]3O[C@H]1C[C@H](N2CCO[C@H](OC)C2)[C@H](O)[C@H](C)O1 [Nemorubicin, nemorubicin] | 133 | 107 | 4 | 4 | 92 | 70 | 104 | > 99% | normalized all genes | 100 | –
4 | Cc1[nH]c2ccccc2c1CCNCc1ccc(/C=C/C(=O)NO)cc1 [Panobinostat, panobinostat] | 68 | 111 | −3 | 4 | 29 | 28 | 40 | 70–80% | – | 86 | effect on HLA-A mRNA (HLA-A): no effect; potency relative to givinostat at inhibiting IFN-β-MHC class I pathway [2]: 45 x; CTG Efficacy at highest concentration (HLA-B HiBit cells; [4]): (25) %; decrease of all genes tested except HLA-A (HLA and ISG genes; compared to IFN-β treated cells): ~ 80%
5 | CCc1cnn2c(NCc3ccc[n+]([O-])c3)cc(N3CCCC[C@H]3CCO)nc12 [Dinaciclib, dinaciclib] | 117 | 100 | 4 | 4 | – | – | – | – | did not decrease any of the other genes tested; also recorded: increased HLA-C, ISG15, and MX1 | 100 | increase of MX1 mRNA (MX1): ~ 3.3 fold; increase of ISG15 mRNA (ISG15): ~ 3.3 fold; common adverse events [3]: leukopenia, thrombocytopenia, gastrointestinal symptoms, alopecia, and fatigue; increase of HLA-C mRNA (HLA-C): ~ 3.3 fold
6 | COc1ccc(-c2nc(N3CCOCC3)c3sc(CN(C)c4ncc(C(=O)NO)cn4)cc3n2)cn1 [CUDC-907] | 73 | 100 | −1b | −3 | 23 | 5.8 | 19 | 70–80% | reduced 3 genes | 86 | decrease of MX1 mRNA (MX1): ~ 75%; decrease of IFIT1 mRNA (IFIT1): ~ 75%; IC50 (HLA-B HiBit cells; Homo sapiens, 24 h, read-out: CTG IC50): 3500 nM; CTG Efficacy (HLA-B HiBit cells; cytotoxicity, IFN-β = 0%, 92 uM Digitonin = −100% activity): 40%; Cell count Efficacy at highest concentration (C25cl48 cells; [4]): (10) %; decrease of HLA-C mRNA (HLA-C): ~ 75%
7 | C[C@]12C=CC(=O)C=C1CC[C@@H]1[C@@H]2[C@@H](O)C[C@@]2(C)[C@H]1CC[C@]2(O)C(=O)CO [Prednisolone] | 14 | 31 | 4 | 4 | 30 | – | 43 | – | increased ISG15 and MX1 | – | increase of MX1 mRNA (MX1): ~ 3.4 fold; increase of ISG15 mRNA (ISG15): ~ 3.4 fold
